Patent US9157102B2, “Over-expression of NADH-dependent oxidoreductase (fucO) for increasing furfural or 5-hydroxymethylfurfural tolerance” (UNIVERSITY OF FLORIDA RESEARCH FOUNDATION, INCORPORATED, priority 2011, dated 2015)
Converted amounts (≈) assume the structure as drawn. Like-named read-outs stand apart in the source and are kept apart here.

Tests used:
[1] = target: T1, FucO (Escherichia coli, UniProt P0A9S1); assay: NADH-/NADPH-dependent furan reduction by purified his-tagged FucO; type: biochemical; details: for NADPH-dependent reductase activity: purified enzyme, NADPH as cofactor
T1 construct: The FucO coding region was cloned into pET15b to produce pLOI4322; made in house; host or cells: E. coli BL21(λDE3) carrying pLOI4322
T1 sequence (P0A9S1 1-382): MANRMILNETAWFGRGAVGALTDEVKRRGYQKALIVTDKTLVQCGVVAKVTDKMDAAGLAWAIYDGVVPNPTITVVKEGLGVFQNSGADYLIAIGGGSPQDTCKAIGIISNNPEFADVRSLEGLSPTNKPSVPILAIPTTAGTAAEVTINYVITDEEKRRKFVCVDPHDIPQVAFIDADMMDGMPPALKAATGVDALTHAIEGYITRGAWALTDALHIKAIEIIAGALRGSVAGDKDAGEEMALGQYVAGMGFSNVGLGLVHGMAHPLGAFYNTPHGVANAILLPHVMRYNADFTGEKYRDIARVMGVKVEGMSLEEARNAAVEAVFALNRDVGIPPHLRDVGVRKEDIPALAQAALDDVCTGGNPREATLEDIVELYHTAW
Description: (§1) Cultures were grown overnight to a cell density of approximately 0.66 mg dew ml^−1 (37° C.) in closed tubes containing 20 ml AM1 (50 g liter^−1 xylose, 0.1 mM IPTG and 12.5 mg liter^−1 ampicillin). Cells were harvested by centrifugation (7,000 g for 5 min, 4° C.), washed twice with 10 ml of cold sodium phosphate buffer (50 mM pH 7.0), resuspended to a cell density of 4.4 mg dew ml^−1, and disrupted in buffer containing 1 mM dithiothreitol using a Fastprep-24 (MP Biomedicals, Solon, Ohio). After clarification at 13,000 g (10 min, 4° C.), protein concentration was determined using a BCA™ Protein Assay Kit (Thermo Scientific, Rockford, Ill.). Furfural-dependent reduction was measured using NADH and NADPH by monitoring the decrease in absorbance at 340 nm (extinction coefficient of NADH of 6,220 M^−1 cm^−1; extinction coefficient of NADPH of […]). Reaction mixtures contained 200 mM phosphate buffer (pH 7.0), 10 mM furfural, and 0.2 mM NADH or NADPH. NADH-dependent and NADPH-dependent reduction of 5-HMF (10 mM) was measured in a similar fashion.
(§2) For the purification of his-tagged FucO, BL21(pLOI4322) was grown in Luria broth at 37° C. When the culture density reached 0.35 g dew liter^−1, IPTG (0.1 mM) was added to induce overexpression. After incubation for 4 h, cells were harvested (7,000 g for 5 min, 4° C.), washed once with 10 mM Tris-HCl (pH 7.1), and lysed using a French pressure cell. After clarification at 30,000 g (1 h, 4° C.), crude extracts were passed through a 0.22 μm polyvinylidene fluoride (PVDF) filter, and further purified using a 1-ml HiTrap™ nickel column (GE Healthcare, Piscataway, N.J.). Purified enzyme was dialyzed in 100 mM phosphate buffer using a Thermo Slide-A-Lyzer and quantified using the BCA™ Protein Assay Kit (Thermo Scientific, Rockford, Ill.).

[2] = system: LY180(pTrc99A); assay: Furfural toxicity in tube cultures, vector control; type: cell-based; details: Escherichia coli, 48 h, read-out: minimum inhibitory concentration
Description: (§3) Furfural toxicity was measured in tube cultures (13 mm by 100 mm) containing 4 ml of AM1 medium with 50 g xylose, 12.5 mg liter^−1 ampicillin, furfural, and other supplements as indicated (28, 29). Cultures were inoculated to an initial density of […] (0.1 mM) was included for fucO induction. Cell mass was measured at 550 nm after incubation for 48 h (37° C.).

[3] = target: YqhD (Escherichia coli, UniProt Q46856); details: cited from earlier work
[4] = system: LY180(pLOI4319); assay: Furfural toxicity in tube cultures, IPTG-induced fucO; type: cell-based; details: Escherichia coli; AM1 medium, xylose, 48 h, 37° C., 0.1 mM IPTG-induced fucO; read-out: minimum inhibitory concentration
Description: as §3

[5] = target: T1, FucO; details: native substrate, reference (6); cited from earlier work
[6] = substrate: O=Cc1ccc(CO)o1; assay: NADH-/NADPH-dependent furan reduction by purified his-tagged FucO; type: biochemical, Escherichia coli; details: other: substrate of purified his-tagged FucO, NADH-specific reduction; 37.0 °C
Description: as §1, §2

[7] = substrate: O=Cc1ccco1; assay: as above; type: biochemical, Escherichia coli; details: other: substrate of purified his-tagged FucO, NADH-specific reduction; 37.0 °C
Description: as §1, §2

YqhD, sequence (Q46856 whole entry): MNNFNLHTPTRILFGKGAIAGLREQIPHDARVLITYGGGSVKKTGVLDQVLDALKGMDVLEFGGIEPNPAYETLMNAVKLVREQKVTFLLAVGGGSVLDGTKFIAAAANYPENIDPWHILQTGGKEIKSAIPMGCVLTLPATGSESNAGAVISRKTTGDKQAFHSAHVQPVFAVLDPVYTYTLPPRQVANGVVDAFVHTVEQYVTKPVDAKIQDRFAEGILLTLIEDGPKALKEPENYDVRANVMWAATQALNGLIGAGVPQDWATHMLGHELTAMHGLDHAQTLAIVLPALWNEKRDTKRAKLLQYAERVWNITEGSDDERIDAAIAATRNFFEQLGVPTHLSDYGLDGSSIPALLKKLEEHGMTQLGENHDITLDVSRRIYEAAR

What does the source list for `O=Cc1ccco1` [furfural]?
Vmax relative to that for L-lactaldehyde ([1]; FucO): 10%; NADPH-dependent reductase activity [1]: No NADPH-dependent furfural or 5-HMF reductase activity; MIC [2]: 10 mM (≈ 961 µg/mL); Km ([3]; reference (29), read-out: Km for furfural): 9 mM; MIC [4]: 15 mM (≈ 1440 µg/mL)

With `O=Cc1ccc(CO)o1` [5-HMF, 5-hydroxymethylfurfural] as the molecule, how does the NADPH-dependent reductase activity [1] read?
The NADPH-dependent reductase activity was “No NADPH-dependent furfural or 5-HMF reductase activity”.

Which results are given for `C[C@H](O)C=O` [L-lactaldehyde]?
Km [5]: 0.035 mM; Vmax [5]: 20 μmol min^−1 mg protein^−1

With `NC(=O)C1=CN([C@@H]2O[C@H](COP(=O)(O)OP(=O)(O)OC[C@H]3O[C@@H](n4cnc5c(N)ncnc54)[C@H](OP(=O)(O)O)[C@@H]3O)[C@@H](O)[C@H]2O)C=CC1` [NADPH] as the molecule, how does the Km ([3]; read-out: Km for NADPH) read?
The Km was 0.008 mM.

B1: FucO (Escherichia coli K-12) (protein)
chain: MANRMILNETAWFGRGAVGALTDEVKRRGYQKALIVTDKTLVQCGVVAKVTDKMDAAGLAWAIYDGVVPNPTITVVKEGLGVFQNSGADYLIAIGGGSPQDTCKAIGIISNNPEFADVRSLEGLSPTNKPSVPILAIPTTAGTAAEVTINYVITDEEKRRKFVCVDPHDIPQVAFIDADMMDGMPPALKAATGVDALTHAIEGYITRGAWALTDALHIKAIEIIAGALRGSVAGDKDAGEEMALGQYVAGMGFSNVGLGLVHGMAHPLGAFYNTPHGVANAILLPHVMRYNADFTGEKYRDIARVMGVKVEGMSLEEARNAAVEAVFALNRDVGIPPHLRDVGVRKEDIPALAQAALDDVCTGGNPREATLEDIVELYHTAW
notes: The FucO coding region was cloned into pET15b to produce pLOI4322; made in house; host or cells: E. coli BL21(λDE3) carrying pLOI4322
With B1 as the molecule, how does the Km [6] read?
Its Km is 0.7 ± 0.3 mM.

And the Vmax [6]?
The Vmax was 0.30±0.05 mmol min^−1 mg protein^−1.

What about the Km [7] of the same molecule?
Its Km is 0.4 ± 0.2 mM.

What about the Vmax [7] of the same molecule?
The Vmax was 1.9±0.4 mmol min^−1 mg protein^−1.
